From the METLIN SMRT retention time set (Domingo-Almenara et al. 2019)

Assay: gradient 5% acetonitrile 3 min, to 50% in 2 min, to 85% in 15 min, held 3 min, 100 µL/min
Settings: column: Zorbax Extend-C18 2.1 x 50 mm; eluents: water / acetonitrile, 0.1% formic acid
Procedure, shortened: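 Values are retention times taken from adduct peaks that software picked and an analyst inspected. The pure standards were run as mixtures of ~100 molecules on HPLC linked to a quadrupole time-of-flight mass spectrometer, in positive and negative ionization mode. A Zorbax Extend-C18 column (2.1 × 50 mm, 1.8 μm) was used at 100 μL/min with water and acetonitrile, each including 0.1% formic acid.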

First: CC(C)CC(=O)N1CCC(Cc2nnc(-c3ccccc3)o2)CC1
Second: CCn1cc(C(=O)N2CCC(c3nnc(-c4ccco4)o3)CC2)c(=O)c2ccc(C)nc21
The RP-LC retention time of the first is higher: 818 s for the first, 654 s for the second.

Going from `Cn1cnnc1SCCNC(=O)c1ccc(OCC(=O)C2CC2)cc1` to `CCN1CCN(C(=O)c2ccc(-c3nnc4ccc(NC(=O)C5CC5)cn34)cc2)CC1`, the RP-LC retention time falls from 603 s to 587 s.

First: Cc1cccc2nnc(N3CCCC(C(=O)N4CCN(C5CCCCC5)CC4)C3)n12 (stereo not given)
Second: Cc1cc(N2CCN(C)CC2)nc2ccc(NC(=S)N3CCCCCC3)cc12
The RP-LC retention time of the first is higher: 570 s for the first, 556 s for the second.

Compared with `O=C(NCCCN1CCCC1=O)c1ccc2ccnc(N3CCN(c4ccc(F)cc4)CC3)c2c1`, `O=C(NCc1cccc(Br)c1)C1CCCN(c2ccc(=O)n(-c3ccc(F)cc3)n2)C1` (stereo not given) is higher in RP-LC retention time: 647 s for the first, 1050 s for the second.

First: CCc1nc2cc(-c3noc(Cc4c(F)cccc4Cl)n3)ccc2o1
Second: Cc1ccccc1-c1noc(Cc2nnc(-c3cccc(Cl)c3)o2)n1
The RP-LC retention time of the first is higher: 1150 s for the first, 1140 s for the second.

First: Cn1c(SCC(=O)Nc2nc(-c3ccccc3)cs2)nnc1-c1cc2ccccc2o1
Second: COc1ccc(NC(=O)N2CCN(Cc3nc4cc(-c5ccccc5)ccc4o3)CC2)cc1
The RP-LC retention time of the first is higher: 961 s for the first, 823 s for the second.

First: COc1ccc(CNC(=O)C2=C3CCCN3c3ccccc3S2(=O)=O)cc1
Second: COc1ccc(C(=O)OCCN2CCN(C3=NS(=O)(=O)c4ccccc43)CC2)cc1OC
The RP-LC retention time of the first is higher: 795 s for the first, 618 s for the second.

Going from `Cc1ccccc1Cn1ccnc1C(=O)N1CCNC(=O)C1` to `Cc1ccc(C)c(N2CCN(c3ccnc(SCC(=O)Nc4ccccc4Cl)n3)CC2)c1`, the RP-LC retention time rises from 616 s to 1130 s.

First: O=C(NCc1ccco1)C1CCCN(c2ncccc2-c2noc(C3CCC3)n2)C1 (stereo not given)
Second: COc1cccc(CNC(=O)C2CCCN(c3nccnc3Sc3ccccc3)C2)c1 (stereo not given)
The RP-LC retention time of the first is lower: 872 s for the first, 1100 s for the second.

Going from `Cc1nn(-c2nc(-c3ccc(F)cc3)cs2)c(C)c1CC(=O)N1CCCC1` to `Cc1cc(-c2nnc(-c3ccc(F)cc3)o2)c(C)n1CC(=O)NCc1ccc2c(c1)OCO2`, the RP-LC retention time falls from 1030 s to 916 s.

Going from `COC(=O)c1ccc(CSc2nnc(C(C)C)c3cnn(-c4ccc(F)cc4)c23)o1` to `CCc1ccc(CNC(=O)Cc2nnc(-c3ccccn3)o2)cc1`, the RP-LC retention time falls from 840 s to 743 s.

Going from `COc1ccc(-n2ccc(=O)c(-c3nc(-c4ccccc4F)no3)n2)cc1` to `COc1ccc(-c2nc(C3CC(=O)N(c4ccc(F)c(Cl)c4)C3)no2)cc1` (stereo not given), the RP-LC retention time rises from 822 s to 1050 s.

Compared with `Cn1nc(-c2ccccc2)cc1C(=O)Nc1nc2c(s1)CN(S(=O)(=O)C1CC1)CC2`, `Cc1cc(S(=O)(=O)N2CCC(n3cnnc3-c3ccccc3)CC2)ccc1Cl` is higher in RP-LC retention time: 854 s for the first, 869 s for the second.

Going from `COc1cccc(-c2n[nH]c3c2C(c2ccc(O)c(OC)c2)NC3=O)c1` (stereo not given) to `Cc1cccc(-c2noc(C3CCCN3C(=O)c3ccc4c(c3)OCO4)n2)c1` (stereo not given), the RP-LC retention time rises from 634 s to 997 s.

Going from `CCOC(=O)NCCS(=O)(=O)N1CCN(c2ccccc2F)CC1` to `CCCCN1CCN(C(=O)C2c3ccccc3CCN2C(C)=O)CC1` (stereo not given), the RP-LC retention time falls from 774 s to 585 s.

Going from `Cc1cnc(NC(=O)C2CN(c3nc4ccccc4s3)C2)s1` to `Cc1ccn2c(NC(=O)c3ccc([N+](=O)[O-])cc3)c(-c3ccccc3)nc2c1`, the RP-LC retention time falls from 700 s to 667 s.

Compared with `CCc1ccc(C(C)NC(=O)c2ccnc3c(NC(C)=O)cccc23)cc1` (stereo not given), `Cc1ccc(C(C)C)cc1S(=O)(=O)Nc1cccc(-c2cn3ccccc3n2)c1` is lower in RP-LC retention time: 896 s for the first, 739 s for the second.

Going from `Cc1ccc(NS(=O)(=O)c2cc(-c3[nH]ncc3C(=O)N(C)C)oc2C)c(F)c1` to `Cn1c(=O)n(C)c2cc(S(=O)(=O)C3CCCCC3)c(NC(=O)c3c(F)cccc3F)cc21`, the RP-LC retention time rises from 678 s to 914 s.

Compared with `Cc1cccc(NC(=O)CN2C(=O)C3CCCCN3c3ccc(S(=O)(=O)N(C)C)cc32)c1` (stereo not given), `CN(C)C(=O)CN1CCN(c2cc(C(=O)O)c3cc(NC(=O)c4cccc(Cl)c4)ccc3n2)CC1` is higher in RP-LC retention time: 607 s for the first, 612 s for the second.

Compared with `c1ccc(CNc2nc(-c3ccncc3)nc3c2CCC3)nc1`, `O=c1c(NCc2ccccn2)nc2ccncc2n1Cc1ccccc1` is higher in RP-LC retention time: 555 s for the first, 578 s for the second.

First: COCC1CN(C(=O)c2ccoc2C)CCC1(F)F (stereo not given)
Second: COc1cc2c(cc1OC)C(C(=O)NCCCN1CCOCC1)C(c1cccs1)N(C)C2=O (stereo not given)
The RP-LC retention time of the first is higher: 729 s for the first, 596 s for the second.

Going from `CCc1nc2ncc(-c3ccnc(N4CCN(C)CC4)n3)c(C)n2n1` to `COc1ccc(CCC(=O)N2CCc3c(c(C(=O)N4CCCC(C(=O)NC5CC5)C4)nn3C)C2)cc1` (stereo not given), the RP-LC retention time rises from 562 s to 649 s.

Molecule `CCNC(=O)c1cc(C)on1` has an RP-LC retention time of 596 s.
